What was measured:
antiserum GC-5 = assay: Cross reactivity in chlorinated DBD radioimmunoassay, antiserum GC-5; type: binding, rabbit
Excerpt: (§1) Since TCDD itself has no chemically reactive functional groups, a derivative was synthesized that retained most of the structural features of TCDD but with the addition of a reactive site. This derivative was coupled to an immunogenic protein carrier, such as bovine serum albumin, rabbit serum albumin, etc., so that animals would respond to it by producing an antiserum containing antibodies. A second compound was synthesized, still structurally similar to TCDD so that it would bind to the antibodies, but capable of being labeled with ^125 I for detectability at the picogram level. An amount of antiserum capable of binding about 20 pg of ^125 I-labeled dioxin derivative (hapten) is preincubated with the detergent emulsion of the sample extract (possibly containing TCDD). Then the mixture is incubated with the ^125 I-labeled derivative long enough for equilibrium binding to occur and form the hapten-antibody complex. A second antibody, namely, goat antibodies against rabbit gamma-globulin (i.e., goat anti-rabbit γ-globulin) are then added to precipitate the antibody ^125 I-labeled dioxin complex, and the amount of ^125 I in the precipitate is determined. The extent to which preincubation with the test material inhibits or decreases the amount of ^125 I precipitated relative to the amount precipitated in the absence of test material is a measure of the amount of chlorodibenzodioxin in the test sample.
(§2) Radioimmunoassay of small molecules requires some means of separating free hapten from antibody-bound hapten. The procedure used in the present invention, chosen because of its compatibility with detergent-solubilized hapten, involved precipitating the antibody-hapten complex with a second antibody, namely, goat antibodies against rabbit gamma-globulin. In this assay chlorodibenzodioxin from the environmental sample completes with the ^125 I-labeled hapten for binding to the antibody. Thus, the decrease in precipitation of radioactivity is a measure of the amount of (unlabeled) hapten in the test sample.
(§3) The assay buffer (hereinafter referred to as "PBS") contained, per liter, 20 mmol of potassium phosphate, 140 mmol of NaCl, and 200 mg of sodium azide. The pH was adjusted to 7.3 with NaOH. Antiserum was diluted with PBS also containing 0.1% bovine gamma globulin and 0.02% rabbit gamma globulin (w/v). Each assay tube from procedure G above received 0.2 ml of PBS, after which the tubes were held in the sonicator for 40 minutes and then cooled to room temperature. Appropriately diluted antiserum or, as control, antiserum diluant was added (0.2 ml) and, after vortex-mixing, the tubes were incubated for 40 minutes at 37°. 14000 disintegrations per minute (hereafter referred to as "DPM") or 7000 counts per minute (hereinafter referred to as "CPM", which equals DPM×counting efficiency) of [^125 I]-iodovaleramide derivative of trichlorodibenzo-p-dioxin in PBS containing 1% "Cutscum" were then added to each tube (approximately 10 μl), vortex mixed, and the tubes incubated for 1 hour at 37° followed by an additional 65 hours of incubation at 4°. Each tube next received 1.24 units of goat anti-rabbit gamma globulin in 0.2 ml of PBS containing 0.05 mM ethylenediamine tetracetic acid (hereinafter referred to as "EDTA"), was vortex mixed, and incubated for 5 hours at 4°. The tubes were centrifuged at 500×g for 20 minutes at 4°. The supernates were poured off and the tubes allowed to drain into Whatman #3 MM paper for 10 minutes. The precipitate or pellets obtained were then radioassayed for ^125 I, with 10 minute count cycles.
(§4) Standard curves were prepared using sequential two-fold dilutions of TCDD or other test compounds in benzene and evaporating the solvent as described above. Both control (blank) and TCDD-spiked tissues were extracted and processed as described above to determine general interference and recoveries. All samples were run in triplicate. […]

antiserum F-12 [1] = assay: Specificity / cross reactivity of the radioimmunoassay, antiserum F-12; type: binding, rabbit
Excerpt: as §1, §2, §3, §4

[2] = in vivo; cited from earlier work
antiserum F-12 [3] = assay: Specificity / cross reactivity of the radioimmunoassay, antiserum F-12; type: binding, rabbit; conditions: incubation times between 2 and 65 hours; "Cutscum"
guinea pig = conditions: cited from earlier work
[4] = Determination of 2,3,7,8-TCDD in monkey tissue by gas chromatography with electron capture detector; type: in vivo, Rhesus Monkeys (Macaca muletta)
Excerpt: (§5) Using spiked, sandy soil samples, the inventors were able to detect 0.7 picomole of 2,3,7,8-TCDD using "Cutsum" and either antiserum. With "Triton X-305" replacing the "Cutscum", as little as 0.08 picomole of 2,3,7,8-TCDDcould be detected. These levels of sensitivity required that a dilution of antiserum (usually about 1:9000) be used that would bind 33% of the ^125 I-labeled hapten. To test the applicability of this assay to tissue samples, the inventors obtained liver and adipose samples from monkeys that had been used in a toxicity study involving 2,3,7,8-TCDD [as described by E. E.McConnell et al in "Toxicity of 2,3,7,8-tetrachlorodibenzo-p-dioxin in Rhesus Monkeys (Macaca muletta) Following a Single Oral Dose", appearing in Toxicol. Appl. Pharmacol. 43/1,175-187(1978)]. Sample size ranged from 3 to 50 mg of tissue for the radioimmunoassay, while 200 mg samples were used for comparison assays by gas chromatography with either negative chemical ionization mass spectrometry [as described by J. R. Hass et al in "Determination of Polychlorinated Dibenzo-p-Dioxins in Biological Samples by Negative Chemical Ionization Mass Spectrometry", appearing in Anal. Chem. 50/11, 1471-1479 (1978)], or an electron capture detector as measuring device.
(§6) ^a Monkeys 373 and 374 were controls and dosed orally with corn oil
alone. Monkeys 380 and 391 were experimental and received a single oral
dose of 70 μg/kg or 350 μg/kg TCDD in corn oil, respectively.
GCEC = Gas chromatography with electron capture detector.

[5] = Determination of 2,3,7,8-TCDD in monkey tissue by gas chromatography with negative ion mass spectrometry; type: in vivo, Rhesus Monkeys (Macaca muletta)
Excerpt: as §5, §6
alone. Monkeys 380 and 391 were experimental and received a single oral […]

[6] = Determination of 2,3,7,8-TCDD in monkey tissue by radioimmunoassay; type: in vivo, Rhesus Monkeys (Macaca muletta); conditions: antiserum F12, "Cutscum"
Experimental: Blend 10 g of tissue in 200 ml of chloroform:methanol, 2:1 (v/v). Filter with suction through glass fiber filter paper (Reeve Angel grade 934AH or equivalent). Return the filter paper and cake to the blender jar and blend with 100 ml of chloroform:methanol, 2:1 (v/v). Filter as above ad combine filtrates. Add 52 ml of 1.2% aqueous KCl, mix well, let phases clear, and collect the lower phase in a 500 ml round bottom flask. Evaporate just to dryness at 40° using a rotary evaporator and water aspirator. This is a modification of the method of Folch et al [J.Biol.Chem.,236,497 (1957)].
Grind together 8 g of anhydrous sodium sulfate per gram of adipose, using a mortar and pestle. Extract the resulting powder with chloroform in a Soxhlet extractor, allowing at least 8 cycles.
Leach the lipid residue from 10 g of liver, 100 ml of blood or 1 g of adipose into 15 ml of CCl4. Partition against 15 ml of con.H2 SO4. Centrifuge at 2000 rpm for 30 minutes. Remove as much of the CCl4 layer as possible and record the volume recovered. Pass the CCl4 solution through anhydrous Na2 CO3 in a glass wool-plugged funnel, rinising the Na2 CO3 with 2 ml of fresh CCl4. Concentrate the filtrate just to dryness on a rotary evaporator at 40°. Leach the residue into 1.5 ml of n-hexane:methylene chloride, 97:3 (v/v).
as §3, with “Each tube next received 1.24 units of goat anti-rabbit gamma globulin in 0.2 ml of PBS containing 0.05 mM ethylenediamine tetracetic acid (hereinafter referred to as "EDTA"), was vortex mixed, and incubated for 5 hours at 4°. The tubes were centrifuged at 500×g for 20 minutes at 4°. The supernates were poured off and the tubes allowed to drain into Whatman #3 MM paper for 10 minutes. The precipitate or pellets obtained were then radioassayed for ^125 I, with 10 minute count cycles.” left out
Using spiked, sandy soil samples, the inventors were able to detect 0.7 picomole of 2,3,7,8-TCDD using "Cutsum" and either antiserum. With "Triton X-305" replacing the "Cutscum", as little as 0.08 picomole of 2,3,7,8-TCDDcould be detected. […]

[7] = monkey 380, adipose, single oral dose 70 μg/kg
[8] = monkey 380, liver, single oral dose 70 μg/kg
[9] = monkey 391, adipose, single oral dose 350 μg/kg
[10] = monkey 391, liver, single oral dose 350 μg/kg

SMILES | Cross Reactivity, Antiserum GC-5: 100 × (inhibition of 125I binding by 4 pmole of test compound)/(inhibition by 4 pmole of 2,3,7,8-TCDD) (antiserum GC-5) | Cross Reactivity, Antiserum F-12: 100 × (inhibition of 125I binding by 4 pmole of test compound)/(inhibition by 4 pmole of 2,3,7,8-TCDD) (antiserum F-12 [1]) | toxicity relative to TCDD [2] | reactivity with F-12 (2,3,7,8-tetrachlorodibenzo-p-dioxin v 2,3,7,8-tetrachlorodibenzofuran) (antiserum F-12 [1]) | ratio of inhibition by 5 ng of 2,3,7,8-DBF to that of 2,3,7,8-DBD (antiserum F-12 [3]) | acute oral LD50 (guinea pig) | TCDD in tissue, GC-EC [4, 7] | TCDD in tissue, GC-EC [4, 8] | TCDD in tissue, GC-EC [4, 9] | TCDD in tissue, GC-EC [4, 10] | binding by the antibodies in GC-5 (antiserum GC-5) | maximum inhibition of binding of 125I-labeled hapten (antiserum GC-5; GC-5 diluted such that 33% of the label was bound in the absence of competitors) | TCDD in tissue, GM-MS [5, 7] | TCDD in tissue, GM-MS [5, 9] | TCDD in tissue, RIA [6, 7] | TCDD in tissue, RIA [6, 8] | TCDD in tissue, RIA [6, 9] | TCDD in tissue, RIA [6, 10]
Clc1cc2c(cc1Cl)Oc1c(cc(Cl)c(Cl)c1Cl)O2 [1,2,3,7,8-Cl5 Dibenzo-p-Dioxin] | 99% | 97% | toxicities comparable to that of TCDD |  |  |  |  |  |  |  |  |  |  |  |  |  |  | 
Clc1cc2oc3cc(Cl)c(Cl)cc3c2cc1Cl [2,3,7,8-Cl4 Dibenzofuran, 2,3,7,8-tetrachlorodibenzofuran] | 25% | 92% |  | approximately the same reactivity | constant |  |  |  |  |  |  |  |  |  |  |  |  | 
Clc1cc2c(cc1Cl)Oc1cc(Cl)c(Cl)cc1O2 [2,3,7,8-TCDD, 2,3,7,8-tetrachlorodibenzo-p-dioxin] | 100% | 100% |  | approximately the same reactivity |  | less than 1 microgram per kg | 87 ppb | 17 ppb | 1810 ppb | 30 ppb | Essentially all of these antibodies (in GC-5) also bind 2,3,7,8-TCDD | up to 97% | 28 ppb | 1740 ppb | 41 ppb | 20 ppb | 1800 ppb | 94 ppb
